Values joined by “and” are separate entries in the source; they are usually repeats but may differ in a detail not shown here. Identical values can stand only once. Strand notation (5' to 3'): a small letter for the sugar, then the base; units joined by * are phosphorothioate-linked, units joined directly phosphodiester-linked; [ ] holds rarer units or linkages, { } end groups; capitals alone tell only the bases. k = constrained ethyl (cEt); [5mC] = 5-methylcytosine; d = 2'-deoxy (DNA)
Legend:
human SMAD7 mRNA [1] = assay: Antisense inhibition of human SMAD7 mRNA expression in Hep3B cells by 3-10-3 cEt gapmers, 10,000 nM, electroporation (Example 2); format: cell-based; details: approximately 24 hours
Procedure, shortened: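 SMAD7 mRNA was measured by real-time PCR (RTS5062) with RiboGreen total-RNA normalization, about 24 h after 10,000 nM gapmer was delivered by electroporation into Hep3B cells at 20,000 per well. Gapmers were 16-mer 3-10-3 cEt, fully phosphorothioate; values are % inhibition versus untreated controls.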

human SMAD7 mRNA [2] = assay: Dose-dependent inhibition of human SMAD7 mRNA expression in Hep3B cells (Example 3, Study 1 and 2); format: cell-based; details: electroporation; for % inhibition of SMAD7 mRNA expression: approximately 16 hours; for IC50: Study 2 (740-20000 nM)
Procedure, shortened: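 Hep3B cells, 20,000 per well, electroporated with antisense oligonucleotide at 0.31, 1.25, 5.00 or 20.00 μM (first series) or 0.74, 2.22, 6.67 or 20.00 μM (second series). After ~16 h, SMAD7 mRNA measured by RT-qPCR (RTS5062), normalised to RIBOGREEN total RNA. Percent inhibition vs untreated cells; IC50 derived.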

[3] = Hep3B cells, electroporation, 10,000 nM antisense oligonucleotide, RTS5062, relative to untreated control cells
[4] = 740 nM, Study 2, relative to untreated control cells
[5] = Hep3B cells, electroporation with 10,000 nM antisense oligonucleotide, SMAD7 mRNA by RT-PCR (RTS5062), relative to untreated control cells
[6] = SMAD7 mRNA, Hep3B cells, 10,000 nM antisense oligonucleotide, electroporation, primer probe set RTS5062, relative to untreated control cells
[7] = Hep3B cells, electroporation with 10,000 nM antisense oligonucleotide, RTS5062, percent inhibition of SMAD7 mRNA relative to untreated control cells
[8] = Hep3B cells, electroporation with 10,000 nM antisense oligonucleotide, primer probe set RTS5062, relative to untreated control cells
[9] = Hep3B cells, 10,000 nM antisense oligonucleotide, electroporation, RT-PCR primer probe set RTS5062, relative to untreated control cells

Substance	% inhibition of SMAD7 mRNA expression (human SMAD7 mRNA [1]; [3])	% inhibition of SMAD7 mRNA expression (human SMAD7 mRNA [2]; [4])	% inhibition of SMAD7 mRNA expression (human SMAD7 mRNA [2]; 2220 nM, Study 2)	% inhibition of SMAD7 mRNA expression (human SMAD7 mRNA [2]; 6670.0 nM, Study 2)	% inhibition of SMAD7 mRNA expression (human SMAD7 mRNA [2]; 20000.0 nM, Study 2)	IC50 (human SMAD7 mRNA [2])	% Inhibition (human SMAD7 mRNA [1]; [5])	% Inhibition (human SMAD7 mRNA [1]; [6])	% Inhibition (human SMAD7 mRNA [1]; [7])	% Inhibition (human SMAD7 mRNA [1]; [8])	% inhibition of SMAD7 mRNA expression (human SMAD7 mRNA [1]; [8])	% Inhibition (human SMAD7 mRNA [1]; [9])
799596 (kA*k[5mC]*kT*d[5mC]*dT*dG*dA*dA*d[5mC]*dG*dG*dA*dA*kA*kG*kA; antisense) [compound 799596]	49%	14%	35%	66%	83%	5 µM						
790476 (kT*kT*k[5mC]*dT*dT*dG*dA*dG*d[5mC]*dA*d[5mC]*d[5mC]*dG*kA*kG*kT; antisense) [compound 790476]		8%	38%	63%	69%	5 µM	67%					
772732 (kG*kA*kT*dA*dT*dT*dT*dA*dG*d[5mC]*dT*dG*dT*k[5mC]*kA*kG; antisense) [compound 772732]		27%	60%	63%	68%	3 µM		58%				
772842 (kG*kT*kT*dA*dA*dT*dA*dA*dT*dA*dT*d[5mC]*dT*kT*k[5mC]*k[5mC]; antisense) [compound 772842]		3%	23%	65%	72%	6 µM			79%			
799118 (antisense kA*kG*kA*dG*d[5mC]*dT*dT*dA*dA*d[5mC]*dA*d[5mC]*dA*k[5mC]*kA*kG) [compound 799118]		0%	16%	50%	75%	< 0.7 µM				71%		
798987 (antisense kA*kA*kT*dG*dA*dT*dG*dA*d[5mC]*d[5mC]*dG*d[5mC]*d[5mC]*k[5mC]*k[5mC]*k[5mC]) [compound 798987]		0%	0%	8%	47%	4 µM					84%	
799404 (antisense kG*kG*kA*dA*d[5mC]*dA*dT*dT*dT*dA*d[5mC]*d[5mC]*d[5mC]*k[5mC]*kT*kG) [compound 799404]		15%	39%	42%	59%	2 µM					68%	
799467 (antisense kG*k[5mC]*kA*dG*dA*d[5mC]*dA*dG*dA*dA*dG*d[5mC]*dT*k[5mC]*kT*kA) [compound 799467]		4%	27%	65%	57%	> 20 µM	69%					
798954 (antisense kA*kT*kA*dA*dG*d[5mC]*dT*dA*dT*dT*dT*d[5mC]*dT*k[5mC]*kA*kA) [compound 798954]		4%	27%	49%	70%	> 20 µM				54%		
829734 (antisense kT*k[5mC]*k[5mC]*dG*d[5mC]*dA*d[5mC]*dA*d[5mC]*d[5mC]*dA*dT*dG*kA*kA*kG) [compound 829734]		20%	40%	69%	68%	4 µM		71%				
799759 (antisense kA*k[5mC]*k[5mC]*dA*dT*dA*dT*d[5mC]*dA*d[5mC]*dT*d[5mC]*d[5mC]*kT*kT*k[5mC]) [compound 799759]	66%	22%	44%	45%	66%	2 µM						
799070 (antisense kA*kG*kG*dG*dA*dA*dT*dA*dA*dG*dA*d[5mC]*dA*kA*kG*kG) [compound 799070]		0%	44%	42%	60%	4 µM					67%	
799755 (antisense kG*kA*kA*dA*dG*dT*dT*dA*d[5mC]*dA*dG*dA*dA*k[5mC]*kT*k[5mC]) [compound 799755]	77%	13%	44%	66%	75%	6 µM						
799734 (antisense kT*k[5mC]*k[5mC]*d[5mC]*dA*dG*dG*dT*dG*dA*dA*d[5mC]*d[5mC]*k[5mC]*kA*k[5mC]) [compound 799734]	45%	8%	44%	64%	67%	8 µM						
799854 (kG*k[5mC]*k[5mC]*dA*dA*dG*dT*dG*dT*d[5mC]*d[5mC]*dA*dT*k[5mC]*kA*kA; antisense) [compound 799854]		21%	56%	80%	79%	5 µM						45%
799712 (antisense kA*kT*kA*dG*dA*dT*dT*dA*dT*d[5mC]*d[5mC]*dA*dA*kG*kT*kA) [compound 799712]	70%	27%	45%	55%	63%	3 µM						
799364 (kT*k[5mC]*k[5mC]*dG*dA*dG*dT*dT*dA*dT*d[5mC]*d[5mC]*d[5mC]*k[5mC]*kA*kT; antisense) [compound 799364]		39%	54%	67%	88%	3 µM					73%	
799563 (kA*kA*kA*dA*d[5mC]*dA*dA*dA*d[5mC]*dA*dA*dG*dG*kG*kT*k[5mC]; antisense) [compound 799563]	68%	32%	57%	85%	88%	5 µM						
800031 (kA*kG*kA*dA*dA*d[5mC]*dA*d[5mC]*dA*dG*dT*dT*d[5mC]*k[5mC]*k[5mC]*kT; antisense) [compound 800031]		10%	39%	57%	69%	8 µM						52%
799753 (antisense k[5mC]*kG*kT*dG*dA*dG*dT*dA*dA*dA*dT*dT*d[5mC]*kT*kT*kA) [compound 799753]	69%	0%	33%	32%	66%	4 µM						
799673 (antisense k[5mC]*kT*kG*dA*dT*dT*dA*dA*d[5mC]*dT*dT*dT*d[5mC]*k[5mC]*kT*kT) [compound 799673]	64%	29%	66%	74%	86%	4 µM						
830051 (kT*kA*kG*dT*dT*dT*d[5mC]*d[5mC]*dG*dA*dT*dT*dG*kG*k[5mC]*kA; antisense) [compound 830051]		0%	18%	42%	67%	2 µM	84%					
799583 (kA*kA*kG*dA*d[5mC]*dA*dA*dA*d[5mC]*d[5mC]*dT*dT*d[5mC]*k[5mC]*kG*kA; antisense) [compound 799583]		26% and 31%	61% and 46%	73% and 59%	65% and 83%	3 µM		74%	74%			

Reference: patent US10517889B2, “Modulators of SMAD7 expression” (Ionis Pharmaceuticals, Inc., priority 2017, dated 2019)
